According to PubChem BioAssay (NCI):
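These data come from cells grown in 96-well plates and exposed to compound for 48 hours at five concentrations. The concentration for full growth arrest is given as TGI.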

Legend:
Experiment in all cases: NCI tumour cell line growth inhibition, 48 h
MOLT-4 leukemia = tested on: MOLT-4 leukemia
UO-31 renal = tested on: UO-31 renal
MDA-MB-231 breast = tested on: MDA-MB-231 breast
OVCAR-5 ovarian = tested on: OVCAR-5 ovarian
SK-OV-3 ovarian = tested on: SK-OV-3 ovarian
A549 NSCLC = tested on: A549 NSCLC
NCI-H226 lung = tested on: NCI-H226 lung
A498 renal = tested on: A498 renal
ACHN renal = tested on: ACHN renal
NCI/ADR-RES ovarian = tested on: NCI/ADR-RES ovarian
LOX IMVI melanoma = tested on: LOX IMVI melanoma

Row | Compound | TGI (MOLT-4 leukemia) [µM] | TGI (UO-31 renal) [µM] | TGI (MDA-MB-231 breast) [µM] | TGI (OVCAR-5 ovarian) [µM] | TGI (SK-OV-3 ovarian) [µM] | TGI (A549 NSCLC) [µM] | TGI (NCI-H226 lung) [µM] | TGI (A498 renal) [µM] | TGI (ACHN renal) [µM] | TGI (NCI/ADR-RES ovarian) [µM] | TGI (LOX IMVI melanoma) [µM]
1 | CCSC1=N/C(=C\c2ccco2)C(Cl)=N1 | > 100 | > 100 | > 100 | > 100 | > 100 | > 100 | > 100 | > 100 | > 100 | > 100 | > 100
2 | C=C1CC(C)(COc2ccc3ccc(=O)oc3c2)OC1=O (configuration not stated) | 2.46 | 29.5 | 24.6 | 22.1 | 21.4 | 30.5 | 27.3 | 23.1 | 11.2 | 11.2 | 5.65
3 | COc1cc(NCc2ccc3nc(OC)c(OC)nc3c2)cc(OC)c1OC | > 100 | > 100 | > 100 | > 100 | > 100 | > 100 | > 100 | > 100 | > 100 | > 100 | > 100
4 | O=c1[nH]nc(Cc2ccccc2)n1/N=C/c1ccccc1Cl | > 100 | > 100 | > 100 | > 100 | > 100 | > 100 | > 100 | > 100 | > 100 | > 100 | > 100
5 | O=C(O)c1ccc(Nc2nc3ccccc3nc2-c2cccs2)cc1 | > 100 | > 100 | > 100 | > 100 | > 100 | > 100 | > 100 | > 100 | > 100 | > 100 | > 100
6 | CC/C=C/C(=O)CC(O)(C(F)(F)F)C(F)(F)F | > 100 | > 100 | > 100 | > 100 | > 100 | > 100 | > 100 | 89.4 | > 100 | > 100 | > 100
7 | COc1cccc2c(Nc3ccc(S(=O)(=O)NC(C)=O)cc3)c3ccc([N+](=O)[O-])cc3nc12 | 80.5 | > 100 | 56.6 | > 100 | > 100 | > 100 | > 64.7 | > 100 | > 100 | > 100 | > 100
8 | CCN(CC)C(=S)SNCc1ccc(S(N)(=O)=O)cc1 | > 62.2 | 28.8 | 37.1 | 29.9 | > 86 | 26.3 | > 63.2 | > 100 | 29.6 | 41.8 | 28.8
9 | CC(=O)OC1COC(n2c(-c3ccc(Cl)cc3)cc(-c3ccccc3)c(C#N)c2=S)C(OC(C)=O)C1OC(C)=O (configuration not stated) | > 100 | 38.4 | 9.38 | > 100 | > 78.7 | 30.6 | 32.3 | 34.1 | > 31.6 | 33.8 | 15.5
10 | NC(=O)C(c1ccccc1)N1OC2C(=O)N(c3cccc4ccccc34)C(=O)C2C1c1c2ccccc2c(Cl)c2ccccc12 (configuration not stated) | 9.03 | 20.3 | 18.8 | 19.3 | > 50 | > 50 | 13.5 | 37.4 | 20.2 | 28.2 | 13.6
11 | CN(C(=O)Cc1ccc(Cl)c(Cl)c1)[C@@H]1CCCC[C@H]1[N+]1(C)CC=CC1 | > 100 | > 100 | > 100 | > 100 | > 100 | > 100 | > 100 | > 100 | > 100 | > 100 | > 100
12 | COC(=O)C1=C(\c2ccccc2)c2ccccc2C(=O)N(C2CCCCC2)/C=C\1 | > 100 | > 100 | 45.1 | > 100 | > 100 | > 100 | 81.5 | > 100 | > 100 | > 100 | 37.7
13 | COC(=O)C(=O)C(C(=O)C(=O)Nc1ccccc1C(C)=O)c1nc2ccc(C(=O)c3ccccc3)cc2[nH]c1=O (configuration not stated) | > 100 | > 100 | > 100 | > 100 | > 100 | > 100 | > 100 | > 100 | > 100 | > 100 | > 100
14 | C=C(Br)CN(C(C)=O)C1CCCCC1 | > 100 | > 100 | > 100 | > 100 | > 100 | > 100 | > 100 | > 100 | > 100 | > 100 | > 100
15 | C(=NCc1ccccc1)c1ccccc1-c1ccccc1C=NCc1ccccc1 | > 10 | > 10 | > 10 | > 10 | > 10 | > 10 | > 10 | > 10 | > 10 | > 10 | > 10
16 | COc1ccc(NC(C)=O)cc1C1CCC(=O)N1 (configuration not stated) | > 100 | > 100 | > 100 | > 100 | > 100 | > 100 | > 100 | > 100 | > 100 | > 100 | > 100
17 | COc1ccc(C(c2c[nH]c3ccc(Br)cc23)c2c[nH]c3ccc(Br)cc23)cc1 | 0.478 | 1.69 | 0.705 | 1.2 | 2.58 | 1.22 | 1.7 | 2.29 | 0.845 | 4.34 | 0.314
18 | CC1(C)CCCCCCC2OC2CCCCCC(C)(C)C1=O (configuration not stated) | 61.2 | 88.2 | > 100 | > 100 | > 100 | > 100 | > 94.4 | > 100 | > 65 | > 88.2 | > 100
19 | NC1=NN(c2ccccc2)C2(O)c3ccncc3C3=NN(c4ccccc4)C(=O)C132 (configuration not stated) | > 100 | > 100 | > 100 | > 100 | > 100 | > 100 | > 100 | > 100 | > 100 | > 100 | > 100

Row | Compound | TGI (MOLT-4 leukemia) [µM] | TGI (UO-31 renal) [µM] | TGI (MDA-MB-231 breast) [µM] | TGI (OVCAR-5 ovarian) [µM] | TGI (SK-OV-3 ovarian) [µM] | TGI (A549 NSCLC) [µM] | TGI (NCI-H226 lung) [µM] | TGI (A498 renal) [µM] | TGI (ACHN renal) [µM] | TGI (NCI/ADR-RES ovarian) [µM] | TGI (LOX IMVI melanoma) [µM]
20 | COc1cc(NP(=O)(Oc2ccccc2)Oc2ccccc2)ccc1Nc1c2ccccc2nc2c1[nH]c1ccccc12 | 0.204 | 16.6 | 28.6 | 30.2 | 20.9 | 2.22 | 20.2 | 14 | 11.9 | 20.9 | > 100
21 | O=C(C[n+]1ccccc1)N=N/C(C(=O)Nc1c(Cl)c(O)c2ccccc2c1O)=C1/C(=O)Oc2cc(O)ccc2C1=O | > 100 | 26.3 | 61.4 | 25.5 | 27.9 | 11 | 25.8 | 57.5 | 19.2 | 85.1 | > 100
22 | CC(=O)N(CCc1ccccc1)C(C#N)c1ccc(OCCCCCCCCCCOc2ccc(C(C#N)N(CCc3ccccc3)C(C)=O)cc2)cc1 (configuration not stated) | > 100 | > 100 | 48.5 | > 100 | > 100 | > 100 | 66.9 | 92.6 | > 100 | > 100 | > 100
23 | CN(/N=C/c1ccccn1)C1=NCCCCN1 | > 100 | > 100 | > 100 | > 100 | > 100 | > 100 | > 100 | > 100 | > 100 | > 100 | > 100
24 | Cc1ccc(Nc2nc(N)nc3c2ncn3C2OC(CO)C(O)C2O)cc1 (configuration not stated) | > 100 | > 100 | > 100 | > 100 | > 100 | > 100 | > 100 | > 100 | > 100 | > 100 | > 100
25 | CC(=O)NC1C(O)C(O)C(CO)OC1n1ncc(=O)[nH]c1=O (configuration not stated) | > 100 | > 100 | > 100 | > 100 | > 100 | > 100 | > 100 | > 100 | > 100 | > 100 | > 100
26 | CC1=C(C(=O)NCCc2ccccc2)CC(C(=O)NCCc2ccccc2)=C(C)N1 | > 100 | > 100 | > 100 | > 100 | > 100 | > 100 | > 100 | > 100 | > 100 | > 100 | > 100
27 | O=C1c2c(ccc3c2CCC3)CC12Cc1cc3c(cc1C2)CCC3 | > 100 | > 100 | > 100 | > 100 | > 100 | > 100 | > 100 | > 100 | > 100 | > 100 | > 100
28 | CN(C)CCCCN1c2ccccc2Sc2cc(N=[N+]=[N-])ccc21 | 4.3 | 3.66 | 3.12 | 3.76 | 5.1 | 3.37 | 7.9 | 22.4 | 4.5 | 4.07 | 3.06
29 | [O-][n+]1onc(-c2ccccc2)c1CN1CCOCC1 | 94.1 | > 100 | > 100 | > 100 | > 100 | > 100 | > 100 | > 100 | > 100 | > 100 | > 100
30 | CNn1c(C)n[nH]c1=O | > 100 | > 100 | > 100 | > 100 | > 100 | > 100 | > 100 | > 100 | > 100 | > 100 | > 100
31 | N#Cc1c(Cl)/c(=C/O)c(=O)n2c1nc1ccccc12 | 96.5 | > 100 | > 100 | 91.7 | > 100 | > 100 | 52 | 72.1 | > 100 | > 100 | > 100
32 | Nc1cn(Cc2ccccc2)c2nc(/C=C3/C=CC=CC3=O)c(O)n12 | > 100 | > 100 | > 100 | > 100 | > 100 | > 100 | > 100 | > 100 | > 100 | > 100 | > 100
33 | O=C1CCC2CCC1C2 (configuration not stated) | > 100 | > 100 | > 100 | > 100 | > 100 | > 100 | > 100 | > 100 | > 100 | > 100 | > 100
34 | CCOC(=O)/C(C#N)=C1\c2c([nH]c(=S)[nH]c2=O)Oc2ccc3ccccc3c21 | 47.3 | > 100 | > 100 | > 100 | > 100 | > 100 | > 100 | > 100 | > 100 | > 100 | > 100
35 | Cc1cccc(C)c1NC(=S)NC=C(C(N)=O)C(N)=O | > 100 | > 100 | > 100 | > 100 | > 100 | > 100 | > 100 | > 100 | > 100 | > 100 | > 100
36 | COc1ccc(-c2c(CN3CCOCC3)sc3nc4ccccc4n23)cc1 | > 100 | > 100 | > 68.9 | > 74.7 | 94.9 | > 86.1 | > 79.8 | 72.4 | > 100 | > 42.8 | > 100
37 | COc1cc(C2C3=C(COC3=O)Oc3cc4c(cc32)OCO4)ccc1OC(C)=O (configuration not stated) | 98.7 | > 100 | 27.1 | > 100 | 0.909 | > 100 | > 100 | > 30.3 | > 100 | > 100 | > 100
